Source: PMC7956476, “Quinoline Functionalized Schiff Base Silver (I) Complexes: Interactions with Biomolecules and In Vitro Cytotoxicity, Antioxidant and Antimicrobial Activities” (Molecules, 2021)

Columns and labels:
[1] = system: Pseudomonas aeruginosa ATCC 27853; assay: Minimum inhibitory concentration (MIC), spotting on Müeller–Hinton agar; type: cell-based; conditions: Gram − Ve; P. aeruginosa; 37 °C, 18 h
[2] = Ferric reducing antioxidant power (FRAP) assay; type: biochemical; conditions: done in triplicate
calf thymus DNA (CT-DNA) = assay: CT-DNA electronic absorption titration (Wolfe–Shimer); type: binding; conditions: intrinsic binding constant, absorption titration, PBS pH 7.2

SMILES	Minimum inhibitory concentration, PA [1] [µg/mL]	Antioxidant (IC50 mg/mL) FRAP [2] [mg/mL]	CT-DNA-Cmp. Kb (M^−1) × 10^5 (calf thymus DNA (CT-DNA))
[Ag+].[O-][Cl+3]([O-])([O-])[O-].c1ccc2nc(-c3nc4ccccc4s3)ccc2c1.c1ccc2nc(-c3nc4ccccc4s3)ccc2c1 [Complex Q7, [Ag(L2)2]ClO4]	0.2	1.13 ± 0.044	15.0 (M^−1) × 10^5
Cc1ccc(N=Cc2ccc3ccccc3n2)cc1.Cc1ccc(N=Cc2ccc3ccccc3n2)cc1.[Ag+].[O-][Cl+3]([O-])([O-])[O-] [Complex Q9, [Ag(L4)2]ClO4]	–	1.62 ± 0.078	5.00 (M^−1) × 10^5
